Patent publication US20250179047A1, “5-[7-(3,4-DIHYDRO-1H-ISOQUINOLINE-2-CARBONYL)-1,2,3,4 TETRAHYDROISOQUINOLIN-6-YL]-1H-PYRROLE-3-CARBOXAMIDE DERIVATIVES, PHARMACEUTICAL COMPOSITIONS CONTAINING THEM AND THEIR USES AS PRO-APOPTOTIC AGENTS” (LES LABORATOIRES SERVIER, priority 2022, published 2025)

Experiments:
BCL2 F104I = BCL2 F104I (Homo sapiens, UniProt P10415, F104I); assay: TR-FRET competitive binding assay, BCL2 F104I; conditions: Ki determined from IC50, read-out: TR_FRET EKI_Bcl2 F104I
In short: (§1)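 Ki derived from IC50 (11-point dilution, 520/495 nm emission ratio) for displacing a fluorescein-labelled PUMA peptide (2 or 20 nM). Target was 0.5 nM E. coli-expressed Halo-tagged BCL2 (1-207) or BCLXL (2-196), terbium-labelled on Halo. Incubation 2 h at 23°C in pH 7.5 Hepes with 150 mM NaCl and 5% DMSO.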

BCL2 G101V [1] = assay: TR-FRET competitive binding assay, BCL2 G101V; design: species or system human; conditions: ratio Ki BCL2 G101V / Ki BCL2 WT
In short: as §1

BCL2 G101V [2] = target: BCL2 G101V (Homo sapiens, UniProt P10415, G101V); assay: TR-FRET competitive binding assay, BCL2 G101V; conditions: BCL2 G101V; Ki determined from IC50; read-out: TR_FRET EKI_Bcl2 G101V
In short: as §1

KMS-12-PE Bcl-2 G101V = assay: In vitro cytotoxicity CellTiter-Glo 48 h, KMS-12-PE Bcl-2 G101V; format: cell-based; conditions: for Ratio (G101V/WT): C50 KMS-12-PE Bcl-2 G101V over C50 KMS-12-PE Bcl-2 WT; for IC50: Homo sapiens, KMS-12-PE, 48 h, CellTiter-Glo, C50 = concentration needed to reach 50% of the cellular viability
In short: (§2)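 Transduce KMS-12-PE with Bcl-2 WT or G101V lentivirus, then FACS-sort RFP-positive cells. Add compounds in an 11-point dilution series and incubate 48 h at 37 °C. Measure ATP-based luminescence with CellTiter-Glo and derive C50 (50% viability).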

BCL2 WT = BCL2 WT (Homo sapiens (Human), UniProt P10415); assay: TR-FRET competitive binding assay, BCL2 WT; conditions: Ki determined from IC50, read-out: TR_FRET EKI_Bcl2 WT
In short: as §1

BCL2 D103Y = BCL2 D103Y (Homo sapiens, UniProt P10415, D103Y); assay: TR-FRET competitive binding assay, BCL2 D103Y; conditions: Ki determined from IC50, read-out: TR_FRET EKI_Bcl2 D103Y
In short: as §1

BCLXL WT = BCLXL WT (Homo sapiens (Human), UniProt Q07817); assay: TR-FRET competitive binding assay, BCLXL WT; conditions: for Ki: BCLXL WT, Ki determined from IC50, read-out: TR_FRET EKI BclxL; for TR_FRET EKI BCLxL/WT selectivty ratio: ratio Ki BCLxL / Ki BCL2 WT
In short: as §1

BCL2 D111A = BCL2 D111A (Homo sapiens, UniProt P10415, D111A); assay: TR-FRET competitive binding assay, BCL2 D111A; conditions: Ki determined from IC50, read-out: TR_FRET EKI_Bcl2 D111A
In short: as §1

KMS-12-PE Bcl-2 WT = assay: In vitro cytotoxicity CellTiter-Glo 48 h, KMS-12-PE Bcl-2 WT; format: cell-based; conditions: Homo sapiens, KMS-12-PE, C50 = concentration needed to reach 50% of the cellular viability
In short: as §2

Chain of BCLXL WT (Q07817 other isoform, or with tags, fused parts or gaps): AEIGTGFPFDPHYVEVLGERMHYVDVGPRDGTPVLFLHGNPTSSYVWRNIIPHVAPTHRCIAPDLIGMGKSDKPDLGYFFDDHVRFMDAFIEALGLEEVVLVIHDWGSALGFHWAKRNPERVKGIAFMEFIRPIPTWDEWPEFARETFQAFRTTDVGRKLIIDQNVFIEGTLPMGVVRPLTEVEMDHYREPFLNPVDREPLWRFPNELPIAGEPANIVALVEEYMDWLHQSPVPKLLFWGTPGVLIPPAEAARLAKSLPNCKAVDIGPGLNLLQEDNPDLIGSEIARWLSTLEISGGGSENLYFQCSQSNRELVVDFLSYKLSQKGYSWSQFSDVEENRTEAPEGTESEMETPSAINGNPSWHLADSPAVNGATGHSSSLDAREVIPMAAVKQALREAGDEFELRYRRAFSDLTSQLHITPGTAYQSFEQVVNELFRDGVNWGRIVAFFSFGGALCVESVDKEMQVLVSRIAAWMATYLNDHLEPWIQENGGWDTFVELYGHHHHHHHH

Q: Which Ki (BCL2 F104I) does the source give for `Cc1c(N(C(=O)c2cc(-c3cc4c(cc3C(=O)N3Cc5ccccc5C[C@H]3CN3CCC5(CC3)CC5)CN(C(=O)Cc3ccc(OCCN5CCOCC5)cc3F)CC4)n(C)c2C)c2ccc(O)cc2)cc(C#N)n1C` [Example 126, 5-{7-[(3S)-3-({6-azaspiro[2.5]octan-6-yl}methyl)-1,2,3,4-tetrahydroisoquinoline-2-carbonyl]-2-(2-{2-fluoro-4-[2-(morpholin-4-yl)ethoxy]phenyl}acetyl)-1,2,3,4-tetrahydroisoquinolin-6-yl}-N-(5-cyano-1,2-dimethyl-1H-pyrrol-3-yl)-N-(4-hydroxyphenyl)-1,2-dimethyl-1H-pyrrole-3-carboxamide] here?
A: Its Ki is 490 pM.

Q: And the “TR_FRET EKI G101V/WT selectivty ratio” value (BCL2 G101V [1])?
A: The value was 5.4.

Q: And the Ki (BCL2 G101V [2])?
A: Its Ki is 700 pM.

Q: What about the “Ratio (G101V/WT)” value (KMS-12-PE Bcl-2 G101V) of the same compound?
A: Its value is 6.34.

Q: What about the IC50 (KMS-12-PE Bcl-2 G101V) of the same compound?
A: The IC50 was 0.0303 µM.

Q: What about the Ki (BCL2 WT) of the same compound?
A: The Ki was 120 pM.

Q: And the Ki (BCL2 D103Y)?
A: The Ki was 370 pM.

Q: And the Ki (BCLXL WT)?
A: Its Ki is 7700 pM.

Q: And the “TR_FRET EKI BCLxL/WT selectivty ratio” value (BCLXL WT)?
A: The value was 64.2.

Q: What about the Ki (BCL2 D111A) of the same compound?
A: The Ki was 380 pM.

Q: And the IC50 (KMS-12-PE Bcl-2 WT)?
A: The IC50 was 0.0048 µM.

Q: Which Ki (BCL2 F104I) does the source give for `Cc1c(N(C(=O)c2cc(-c3cc4c(cc3C(=O)N3Cc5ccccc5C[C@H]3CN3CCCCC3)CN(C(=O)Cc3ccc(OCCN(C)CCF)cc3F)CC4)n(C)c2C)c2ccc(O)cc2)cc(C#N)n1C` [Example 134, N-(5-cyano-1,2-dimethyl-1H-pyrrol-3-yl)-5-{2-[2-(2-fluoro-4-{2-[(2-fluoroethyl)(methyl)amino]ethoxy}phenyl)acetyl]-7-[(3S)-3-[(piperidin-1-yl)methyl]-1,2,3,4-tetrahydroisoquinoline-2-carbonyl]-1,2,3,4-tetrahydroisoquinolin-6-yl}-N-(4-hydroxyphenyl)-1,2-dimethyl-1H-pyrrole-3-carboxamide] here?
A: Its Ki is 330 pM.

Q: What about the “TR_FRET EKI G101V/WT selectivty ratio” value (BCL2 G101V [1]) of the same compound?
A: The value was 5.8.

Q: What about the Ki (BCL2 G101V [2]) of the same compound?
A: The Ki was 300 pM.

Q: What about the “Ratio (G101V/WT)” value (KMS-12-PE Bcl-2 G101V) of the same compound?
A: The value was 4.6.

Q: What about the IC50 (KMS-12-PE Bcl-2 G101V) of the same compound?
A: The IC50 was 0.0265 µM.

Q: What about the Ki (BCL2 WT) of the same compound?
A: Its Ki is 60 pM.

Q: What about the Ki (BCL2 D103Y) of the same compound?
A: Its Ki is 180 pM.

Q: And the Ki (BCLXL WT)?
A: The Ki was 2600 pM.

Q: And the “TR_FRET EKI BCLxL/WT selectivty ratio” value (BCLXL WT)?
A: The value was 45.6.

Q: And the Ki (BCL2 D111A)?
A: The Ki was 170 pM.

Q: What about the IC50 (KMS-12-PE Bcl-2 WT) of the same compound?
A: The IC50 was 0.0058 µM.

Q: With `Cc1c(N(C(=O)c2cc(-c3cc4c(cc3C(=O)N3Cc5ccccc5C[C@H]3CN3CCCCC3)CN(C(=O)Cc3ccc(OCCN5CCOCC5)cc3F)CC4)n3ccccc23)c2ccc(O)cc2)cc(C#N)n1C` [Example 136, N-(5-cyano-1,2-dimethyl-pyrrol-3-yl)-3-[2-[2-[2-fluoro-4-(2-morpholinoethoxy)phenyl]acetyl]-7-[(3S)-3-(1-piperidylmethyl)-3,4-dihydro-1H-isoquinoline-2-carbonyl]-3,4-dihydro-1H-isoquinolin-6-yl]-N-(4-hydroxyphenyl)indolizine-1-carboxamide] as the compound, how does the Ki (BCL2 F104I) read?
A: Its Ki is 170 pM.

Q: What about the “TR_FRET EKI G101V/WT selectivty ratio” value (BCL2 G101V [1]) of the same compound?
A: The value was 4.2.

Q: And the Ki (BCL2 G101V [2])?
A: Its Ki is 600 pM.

Q: What about the “Ratio (G101V/WT)” value (KMS-12-PE Bcl-2 G101V) of the same compound?
A: The value was 3.22.

Q: What about the IC50 (KMS-12-PE Bcl-2 G101V) of the same compound?
A: The IC50 was 0.0118 µM.

Q: And the Ki (BCL2 WT)?
A: Its Ki is 130 pM.

Q: And the Ki (BCL2 D103Y)?
A: Its Ki is 320 pM.

Q: And the Ki (BCLXL WT)?
A: Its Ki is 2300 pM.

Q: What about the “TR_FRET EKI BCLxL/WT selectivty ratio” value (BCLXL WT) of the same compound?
A: Its value is 17.7.

Q: What about the Ki (BCL2 D111A) of the same compound?
A: The Ki was 350 pM.

Q: What about the IC50 (KMS-12-PE Bcl-2 WT) of the same compound?
A: The IC50 was 0.0037 µM.

Q: With `Cc1c(N(C(=O)c2cc(-c3cc4c(cc3C(=O)N3Cc5ccccc5C[C@H]3CN3CC5(CC5)C3)CN(C(=O)Cc3ccc(OCCN5CCOCC5)cc3F)CC4)n(C)c2C)c2ccc(O)cc2)cc(C#N)n1C` [Example 145, 5-{7-[(3S)-3-({5-azaspiro[2.3]hexan-5-yl}methyl)-1,2,3,4-tetrahydroisoquinoline-2-carbonyl]-2-(2-{2-fluoro-4-[2-(morpholin-4-yl)ethoxy]phenyl}acetyl)-1,2,3,4-tetrahydroisoquinolin-6-yl}-N-(5-cyano-1,2-dimethyl-1H-pyrrol-3-yl)-N-(4-hydroxyphenyl)-1,2-dimethyl-1H-pyrrole-3-carboxamide] as the compound, how does the Ki (BCL2 F104I) read?
A: The Ki was 140 pM.

Q: And the “TR_FRET EKI G101V/WT selectivty ratio” value (BCL2 G101V [1])?
A: Its value is 5.4.

Q: And the Ki (BCL2 G101V [2])?
A: Its Ki is 200 pM.

Q: And the “Ratio (G101V/WT)” value (KMS-12-PE Bcl-2 G101V)?
A: Its value is 5.2203.

Q: And the IC50 (KMS-12-PE Bcl-2 G101V)?
A: Its IC50 is 0.154 µM.

Q: What about the Ki (BCL2 WT) of the same compound?
A: Its Ki is 30 pM.

Q: What about the Ki (BCL2 D103Y) of the same compound?
A: The Ki was 110 pM.

Q: What about the Ki (BCLXL WT) of the same compound?
A: The Ki was 1100 pM.

Q: What about the “TR_FRET EKI BCLxL/WT selectivty ratio” value (BCLXL WT) of the same compound?
A: The value was 39.3.

Q: And the Ki (BCL2 D111A)?
A: The Ki was 70 pM.

Q: What about the IC50 (KMS-12-PE Bcl-2 WT) of the same compound?
A: The IC50 was 0.0295 µM.
